Results taken from patent US10093683B2, “Factor XIa inhibitors” (Merck Sharp & Dohme Corp., priority 2014, dated 2018).
Like-named read-outs stand apart in the source and are kept apart here.

Columns and labels:
[1] = target: human Factor XIa (Homo sapiens (Human), UniProt P03951); test: Factor XIa Assay; assay type: biochemical; details: read-out: FXIa Ki
Summary of the method: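 Purified human FXIa (40 pM final) hydrolysing fluorogenic Z-Gly-Pro-Arg-AFC (100 μM) in 50 mM HEPES pH 7.4, 150 mM NaCl, 5 mM CaCl2, 0.1% PEG 8000, at room temperature or 37° C. Initial velocities measured after enzyme–inhibitor equilibration; Ki from Vo/Vi versus [I], assuming competitive inhibition.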

[2] = target: Human plasma kallikrein (Homo sapiens (Human), UniProt P03952); test: Kallikrein Assay; assay type: biochemical; details: purified Human plasma kallikrein 0.5 nM, Acetyl-K-P-R-AFC, pH 7.4; Ki from IC50 by Cheng Prusoff
Summary of the method: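 Purified human plasma kallikrein (0.5 nM final) with Acetyl-K-P-R-AFC substrate ([…]) in 50 mM HEPES pH 7.4, 150 mM NaCl, 5 mM CaCl2, 0.1% PEG 8000, after enzyme-inhibitor equilibration. Fluorescence (405 ex/510 em) under linear conditions; IC50 from four-parameter fit, converted to Ki by Cheng-Prusoff.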

[3] = purified human Factor XIa 40 pM, Z-Gly-Pro-Arg-AFC 100 μM, pH 7.4

Sequence of human Factor XIa (P03951 388-625): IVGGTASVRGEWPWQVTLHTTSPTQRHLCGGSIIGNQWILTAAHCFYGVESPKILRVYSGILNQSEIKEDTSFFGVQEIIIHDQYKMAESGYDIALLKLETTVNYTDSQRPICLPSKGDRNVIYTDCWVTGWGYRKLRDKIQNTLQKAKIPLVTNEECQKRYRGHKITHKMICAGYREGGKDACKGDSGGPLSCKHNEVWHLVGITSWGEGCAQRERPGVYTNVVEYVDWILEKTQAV
Sequence of human Factor XIa (P03951 19-387 partner): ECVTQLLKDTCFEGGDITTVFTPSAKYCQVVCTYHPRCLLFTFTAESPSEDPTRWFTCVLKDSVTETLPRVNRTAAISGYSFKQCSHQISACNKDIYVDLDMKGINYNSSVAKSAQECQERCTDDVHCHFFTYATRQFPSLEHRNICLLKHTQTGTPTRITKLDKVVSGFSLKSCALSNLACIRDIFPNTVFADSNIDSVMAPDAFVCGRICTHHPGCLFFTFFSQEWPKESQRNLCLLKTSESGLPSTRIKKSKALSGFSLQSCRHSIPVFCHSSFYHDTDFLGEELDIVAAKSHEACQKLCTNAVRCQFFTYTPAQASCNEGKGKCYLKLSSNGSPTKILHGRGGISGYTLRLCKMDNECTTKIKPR
Sequence of Human plasma kallikrein (P03952 391-638): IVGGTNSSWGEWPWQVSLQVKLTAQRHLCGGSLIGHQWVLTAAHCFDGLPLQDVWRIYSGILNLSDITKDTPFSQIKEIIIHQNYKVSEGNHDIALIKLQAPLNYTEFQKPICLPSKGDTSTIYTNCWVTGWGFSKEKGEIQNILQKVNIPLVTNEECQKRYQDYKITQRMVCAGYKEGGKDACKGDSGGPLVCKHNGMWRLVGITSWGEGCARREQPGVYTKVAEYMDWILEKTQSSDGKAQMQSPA
Sequence of Human plasma kallikrein (P03952 20-390 partner): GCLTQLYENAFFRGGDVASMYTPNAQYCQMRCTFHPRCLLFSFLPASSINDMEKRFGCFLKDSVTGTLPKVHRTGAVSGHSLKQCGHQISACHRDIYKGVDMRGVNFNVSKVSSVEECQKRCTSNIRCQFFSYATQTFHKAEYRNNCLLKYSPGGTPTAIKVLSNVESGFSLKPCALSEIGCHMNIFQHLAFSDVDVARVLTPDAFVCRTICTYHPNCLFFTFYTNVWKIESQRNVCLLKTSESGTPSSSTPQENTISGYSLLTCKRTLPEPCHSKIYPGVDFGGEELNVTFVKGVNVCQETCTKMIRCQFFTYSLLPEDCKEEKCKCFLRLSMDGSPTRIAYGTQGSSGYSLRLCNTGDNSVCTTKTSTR

Ki [1, 3] [nM]	Ki [2] [nM]	Ki [1] [nM]	SMILES
	31	> 875	O=C1Nc2ccc(Cl)c(F)c2[C@@]2(CCCN(C(=O)[C@H](Cc3ccccc3)NC(=O)c3ccc4[nH]nc(C(F)(F)F)c4c3)C2)O1 [Example 256, N—((S)-1-((R)-6-chloro-5-fluoro-2-oxo-1,2-dihydrospiro[benzo[d][1,3]oxazine-4,3′-piperidin]-1′-yl)-1-oxo-3-phenylpropan-2-yl)-3-(trifluoromethyl)-1H-indazole-5-carboxamide]
	1.7	14.5	CNc1cc(C(=O)N[C@@H](Cc2ccccc2)C(=O)N2CCC[C@@]3(C2)OC(=O)Nc2ccc(Cl)cc23)ccn1 [Example 206]
	3	5	CC(C)(O)C[C@H](NC(=O)c1ccc2c(N)n[nH]c2c1)C(=O)N1CCC[C@@]2(C1)OC(=O)Nc1ccc(Cl)cc12 [Example 269]
	0.9	0.85	Nc1n[nH]c2cc(C(=O)N[C@@H](CC(=O)N3CCCC3)C(=O)N3CCC[C@@]4(C3)OC(=O)Nc3ccc(Cl)cc34)ccc12 [Example 268]
	1.4	0.7	O=C1Nc2ccc(Cl)c(F)c2[C@@]2(CCCN(C(=O)[C@H](CC3CC3)NC(=O)c3ccc4[nH]nc(O)c4c3)C2)O1 [Example 214]

Further lines, the compound ahead of its results:

SMILES	Ki [1, 3] [nM]	Ki [2] [nM]	Ki [1] [nM]
COC(=O)Nc1ccc(C(=O)N[C@@H](Cc2cncn2C)C(=O)N2CCC3(C2)OC(=O)Nc2ccc(Cl)cc23)cc1 (stereo partly drawn) [Example 30, methyl (4-(((2S)-1-(6-chloro-2-oxo-1,2-dihydrospiro[benzo[d][1,3]oxazine-4,3′-pyrrolidin]-1′-yl)-3-(1-methyl-1H-imidazol-5-yl)-1-oxopropan-2-yl)carbamoyl)phenyl)carbamate]	17.6	37	
COC(=O)Nc1ccc(C(=O)N[C@@H](CCF)C(=O)N2CCC[C@@]3(C2)OC(=O)Nc2ccc(Cl)c(F)c23)cc1 [Example 105, methyl (4-(((S)-1-((R)-6-chloro-5-fluoro-2-oxo-1,2-dihydrospiro[benzo[d][1,3]oxazine-4,3′-piperidin]-1′-yl)-4-fluoro-1-oxobutan-2-yl)carbamoyl)phenyl)carbamate]	9.99	3.04	
COC(=O)Nc1ccc(C(=O)N[C@@H](CO)C(=O)N2CCC[C@@]3(C2)OC(=O)Nc2ccc(Cl)cc23)cc1 [Example 38, methyl (4-(((S)-1-((R)-6-chloro-2-oxo-1,2-dihydrospiro[benzo[d][1,3]oxazine-4,3′-piperidin]-1′-yl)-3-hydroxy-1-oxopropan-2-yl)carbamoyl)phenyl)carbamate]	49.9	9.45	
COC(=O)Nc1ccc(C(=O)N[C@@H](Cc2ccc(O)cc2)C(=O)N2CCC3(C2)OC(=O)Nc2ccc(Cl)cc23)cc1 (stereo partly drawn) [Example 35, methyl (4-(((2S)-1-(6-chloro-2-oxo-1,2-dihydrospiro[benzo[d][1,3]oxazine-4,3′-pyrrolidin]-1′-yl)-3-(4-hydroxyphenyl)-1-oxopropan-2-yl)carbamoyl)phenyl)carbamate]	3.28	24.6	
COC(=O)Nc1ccc(C(=O)N[C@@H](Cc2ccccc2)C(=O)N2CCC[C@@]3(C2)OC(=O)Nc2ccc(Cl)cc23)cc1 [Example 3b, methyl (4-(((S)-1-((R)-6-chloro-2-oxo-1,2-dihydrospiro[benzo[d][1,3]oxazine-4,3′-piperidin]-1′-yl)-1-oxo-3-phenylpropan-2-yl)carbamoyl)phenyl)carbamate]	1.5	1.55	
COC(=O)Nc1ccc(C(=O)N[C@@H](Cc2ccc(F)c(F)c2)C(=O)N2CCC3(C2)OC(=O)Nc2ccc(Cl)cc23)cc1 (stereo partly drawn) [Example 27, methyl (4-(((2S)-1-(6-chloro-2-oxo-1,2-dihydrospiro[benzo[d][1,3]oxazine-4,3′-pyrrolidin]-1′-yl)-3-(3,4-difluorophenyl)-1-oxopropan-2-yl)carbamoyl)phenyl)carbamate]	14.3	32.6	
